# Reference: paper PMC10671431, “New Derivatives of N-Hydroxybutanamide: Preparation, MMP Inhibition, Cytotoxicity, and Antitumor Activity” (International Journal of Molecular Sciences, 2023)
# Columns and labels:
# [1] = molecular target: T1, MMP-9 (Homo sapiens, UniProt P14780); experiment: MMP activity assay, fluorogenic substrate (MMP Inhibitor Profiling Kit); format: biochemical
# T1 construct: the BML- prefix points to Enzo Life Sciences, own knowledge BML-AK308
# Protocol: (§1) Determination of MMP activity. A fluorescently labeled substrate probe containing a fluorescent label and a fluorescence quencher, was utilized for this study. […] Enzyme activity was assessed using the MMP Inhibitor Profiling Kit (Product # BML-AK308, New York, NY, USA) according to the manufacturer’s recommendations. The nonspecific inhibitor NNGH was used as a positive control. The fluorescence of the fluorogenic substrate OmniMMP^TM RED was measured at wavelengths Ex/Em = 545/576 nm using a Spark 10M multimode plate reader (Tecan, Zurich, Switzerland). Reaction rates were expressed in relative fluorescence units (RFUs) per minute. The activity of MMPs in the presence of the studied compounds was determined as follows:Activity, % = (Vinh/Vcont) × 100,(1) where V is the initial reaction rate (RFUs/min) in the presence (Vinh) and absence (Vcont) of the studied compounds.
# (§2) All tested compounds were dissolved in DMSO. The final concentration of DMSO in all samples was 0.1%. Control samples were treated with 0.1% DMSO.
# [2] = molecular target: T2, MMP-3 (Homo sapiens, UniProt P08254); experiment: as above; format: biochemical
# T2 construct: the BML- prefix points to Enzo Life Sciences, own knowledge BML-AK308
# T2 sequence (P08254 100-272 limits assumed): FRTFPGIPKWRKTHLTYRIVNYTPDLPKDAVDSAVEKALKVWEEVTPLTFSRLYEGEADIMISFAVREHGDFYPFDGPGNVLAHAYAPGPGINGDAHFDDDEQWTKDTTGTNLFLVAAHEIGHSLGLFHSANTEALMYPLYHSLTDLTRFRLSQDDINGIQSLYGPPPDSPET
# Protocol: as §1, §2
# [3] = molecular target: T3, MMP-2 (Homo sapiens, UniProt P08253); experiment: as above; format: biochemical
# T3 construct: the BML- prefix points to Enzo Life Sciences, own knowledge BML-AK308
# T3 sequence (P08253 110-446 limits assumed): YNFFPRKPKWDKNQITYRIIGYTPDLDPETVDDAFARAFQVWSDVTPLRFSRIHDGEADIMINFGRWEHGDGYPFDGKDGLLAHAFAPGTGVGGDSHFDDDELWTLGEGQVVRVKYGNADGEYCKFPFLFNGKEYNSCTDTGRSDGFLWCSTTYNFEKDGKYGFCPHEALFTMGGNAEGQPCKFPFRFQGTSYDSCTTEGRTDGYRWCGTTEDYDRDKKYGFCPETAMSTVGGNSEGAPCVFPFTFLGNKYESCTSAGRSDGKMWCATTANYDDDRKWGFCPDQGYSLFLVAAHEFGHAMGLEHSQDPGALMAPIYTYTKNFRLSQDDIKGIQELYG
# Protocol: as §1, §2
# [4] = molecular target: T4, MMP-14 (Homo sapiens, UniProt P50281); experiment: as above; format: biochemical
# T4 construct: the BML- prefix points to Enzo Life Sciences, own knowledge BML-AK308
# Protocol: as §1, §2
# [5] = test system: B16 melanoma; experiment: Antimetastatic activity in vivo, lung metastases; set-up: species or system mouse
# Protocol: Antitumor activity in vivo. The B16 mouse melanoma was used as a tumor model. The B16 melanoma tumor strain was induced in male BDF1 mice by subcutaneous inoculation of 0.2–0.5 mL of a suspension of tumor tissue in medium 199 at intervals of 12–16 days. For the experiments, BDF1 mice were inoculated with 0.3 mL of a suspension of tumor tissue diluted in a 0.9% NaCl solution at a ratio of 1:5 subcutaneously on the right side.
# Compound 4 was dissolved in a 0.9% NaCl solution with 1% DMSO. […] Control animals were injected intraperitoneally with 1% DMSO in saline (0.9% NaCl) in the same volumes as the test compounds.
# And MNMcont. are the mean number of metastases in the experimental and control groups, respectively.
# [6] = concentration of 1 μM (Figure 3)
# [7] = lungs, B16 melanoma, BDF1 mice, doses as in Table 5
# T1 sequence (P14780 107-444 limits assumed): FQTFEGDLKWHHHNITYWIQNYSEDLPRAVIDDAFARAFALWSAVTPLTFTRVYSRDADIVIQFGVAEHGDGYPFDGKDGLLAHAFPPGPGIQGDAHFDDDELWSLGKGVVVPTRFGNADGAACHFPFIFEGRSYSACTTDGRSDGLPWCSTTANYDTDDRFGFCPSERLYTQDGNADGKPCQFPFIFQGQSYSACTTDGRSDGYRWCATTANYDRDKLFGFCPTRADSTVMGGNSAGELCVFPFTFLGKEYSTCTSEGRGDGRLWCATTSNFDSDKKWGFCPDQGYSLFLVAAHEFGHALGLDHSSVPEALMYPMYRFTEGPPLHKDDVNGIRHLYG
smiles,measurement,setting,value
"O=C(CCC(=O)Nc1ccc(I)cc1)NO [Compound 4, N^1-hydroxy-N^4-(4-iodophenyl)butanediamide]",inhibition at 1 µM,[1]; [6],~50%
same,IC50,"[1]; read-out: MMP-inhibiting activity IC50, MMP-9",1060 ± 10 nM
same,effect on MMP-3 activity,[2]; [6],no effect
same,concentration with significant effect on MMP-3 activity,[2]; dose–effect relationship (Figure 4),approximately 10 μM
same,IC50,"[2]; read-out: MMP-inhibiting activity IC50, MMP-3",> 10000 nM
same,inhibition at 1 µM,[3]; [6],~50%
same,IC50,"[3]; read-out: MMP-inhibiting activity IC50, MMP-2",1260 ± 10 nM
same,inhibition at 1 µM,[4]; [6],~50%
same,IC50,"[4]; read-out: MMP-inhibiting activity IC50, MMP-14",1490 ± 10 nM
same,reduction of the number of animals with metastases in the group,[5]; 300 mg/kg i.p. days 2–9,50%
same,% Inhibition of Metastases,[5]; [7],88.6%
same,Mean Number of Metastases per Mouse,[5]; [7],1.3 ± 0.9
same,"Metastasis Rate, %",[5]; [7],50%
same,Number of Animals without Metastases,"[5]; of 6 animals in the group, lungs, B16 melanoma, BDF1 mice, doses as in Table 5",3
